What was measured:
[1] = RNA encapsulation efficacy by Quant-IT Ribogreen kit; type: physicochemical; conditions: LNP with cirRNA (SEQ ID NO: 1)
Procedure: (§1) Ionizable lipid, DSPC, Cholesterol and DMG-PEG 2000 were mixed at a molar ratio of 50:10:38.5:1.5 in absolute ethanol. Circular RNA and linear mRNA payloads were suspended in 25 mM Acetate Buffer (pH 4.5). To form LNPs, three volumes of luciferase encoding RNA, in the form of cirRNA (SEQ ID NO:1) and mRNA (SEQ ID NO:2) respectively, were mixed with one volume of lipids in ethanol solution by microfluidic mixing with the Nanoassemblr Ignite (Precision Nanosystems) at a flow rate of 12 ml/min. The molar ratio of ionizable lipid to ribonucleotide was 15 or 6. The final lipid concentration in solution ranged from 1.5 mM to 6 mM. After encapsulation, the particles were dialyzed twice against PBS.
(§2) The LNP size and polydispersity index (PDI), determined by dynamic light scattering (DLS), and zeta potential were measured by a Zetasizer machine (Malvern). RNA concentration and encapsulation efficacy were analyzed by the Quant-IT Ribogreen kit by calculating the percentage encapsulation at 100%−(RNA-LNPs/RNA-LNPs with Triton X-100).

Hep G2 cells [2] = test: In vitro toxicity (CellTiter-Glo cell viability), Hep G2; type: cell-based; conditions: cirRNA (SEQ ID NO: 1) LNPs; Hep G2 cells;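 further: percent of untreated cells luminescence signal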
Procedure: (§3) RAW 264.7 and Hep G2 cells were transfected with 1 μg/mL RNA-LNPs. At 72 hours post transfection, cell viability was determined with the CellTiter-Glo® reagent kit, according to the kit protocol, measured by a luminometer.
(§4) The cell viability was calculated according to the following formula: […]

RAW 264.7 cells [3] = test: In vitro toxicity (CellTiter-Glo cell viability), RAW 264.7; type: cell-based; conditions: cirRNA (SEQ ID NO: 1) LNPs; RAW 264.7 cells;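 further: percent of untreated cells luminescence signal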
Procedure: as §3, §4

[4] = LNP size and polydispersity index (PDI) by dynamic light scattering; type: physicochemical; conditions: LNP with cirRNA (SEQ ID NO: 1); for Size: in nm (unit assumed)
Procedure: as §1, §2

Hep G2 cells [5] = test: In vitro expression of firefly-luciferase, Hep G2; type: cell-based; conditions: cirRNA (SEQ ID NO: 1) LNPs; firefly-luciferase luminescence; Hep G2 cells
Procedure: (§5) RAW 264.7 and Hep G2 cells were transfected with 100 ng/mL of RNA-LNPs encoding for firefly-luciferase. At 72 hours post transfection, the cells were washed and lysed. The luciferase expression was determined in the cell lysates with the luciferase assay reagent kit (Promega), according to the kit protocol, luciferase activity was measured by a luminometer.

RAW 264.7 cells [6] = test: In vitro expression of firefly-luciferase, RAW 264.7; type: cell-based; conditions: cirRNA (SEQ ID NO: 1) LNPs; firefly-luciferase luminescence; RAW 264.7 cells
Procedure: as §5

BALB/C mice = test: In vivo expression, whole-body luminescence (IVIS); conditions: cirRNA (SEQ ID NO: 1) LNPs, BALB/C mice
Procedure: 6-8 week old, female BALB/C mice were injected with 0.05 mg*kg-1 of RNA-LNPs encoding for firefly-luciferase by intravenous injection. At 6 hours post injection, animals were intraperitoneally injected with 15 mg/ml of Luciferin substrate and whole-body luminescence was determined by a bioluminescent in vivo imaging system (IVIS).

[7] = LNP zeta potential (Zetasizer); type: physicochemical; conditions: LNP with cirRNA (SEQ ID NO: 1)
Procedure: as §1, §2

Row | Encapsulation Efficiency % [1] | PDI [4] | Size [4] | Zeta (mV) [7] | SMILES | In vitro Viability HepG2 (Hep G2 cells [2]) | In vitro Viability RAW (RAW 264.7 cells [3]) | In vitro Expression HepG2 (Hep G2 cells [5]) | In vitro Expression RAW (RAW 264.7 cells [6]) | In vivo Expression (Whole Body) (BALB/C mice)
1 | 99% | 0.087 | 142.9 | 8.392 mV | CCCCC/C=C\C/C=C\CCCCCCCCN(CCCCCCCC/C=C\CCCCCCCC)CCOC(=O)NCCN(C)C [Lipid 67, 2-(((Z)-octadec-9-en-1-yl)((9Z,12Z)-octadeca-9,12-dien-1-yl)amino)ethyl (2-(dimethylamino)ethyl)carbamate] | 120% | 107% | 1.21E+05 | 5.99E+02 | 6.00E+07
2 | 95% | 0.205 | 161.1 | 16.31 mV | CCCCC/C=C\C/C=C\CCCCCCCCN(CCCCCCCC/C=C\CCCCCCCC)CCOC(=O)NCCCN(CC)CC [Lipid 69, 2-(((Z)-octadec-9-en-1-yl)((9Z,12Z)-octadeca-9,12-dien-1-yl)amino)ethyl (3-(diethylamino)propyl)carbamate] | 86% | 102% | 4.62E+04 | 2.25E+02 | 2.17E+06
3 | 97% | 0.115 | 83.09 | 11.22 mV | CCCCC/C=C\C/C=C\CCCCCCCCN(CCCCCCCC/C=C\CCCCCCCC)CCOC(=O)NCCN1CCN(C)CC1 [Lipid 70, 2-(((Z)-octadec-9-en-1-yl)((9Z,12Z)-octadeca-9,12-dien-1-yl)amino)ethyl (2-(4-methylpiperazin-1-yl)ethyl)carbamate] | 120% | 104% | 9.79E+04 | 2.29E+03 | 2.08E+05
4 | 96% | 0.1484 | 137.8 | 0.03131 mV | CCCCC/C=C\C/C=C\CCCCCCCCN(CCCCCC(=O)OCC(CCCCCCCC)CCCCCCCCCC)CCOC(=O)NCc1ncc[nH]1 (stereo not drawn) [Lipid 76, 2-octyldodecyl 6-((2-((((1H-imidazol-2-yl)methyl)carbamoyl)oxy)ethyl)((9Z,12Z)-octadeca-9,12-dien-1-yl)amino)hexanoate] | 121% | 86% | 1.22E+04 | 5.53E+02 | 2.55E+05
5 | 100% | 0.0918 | 110 | 9.83 mV | CCCCC/C=C\C/C=C\CCCCCCCCN(CCCCCC(=O)OCC(CCCCCCCC)CCCCCCCCCC)CCOC(=O)NCCN1CCN(C)CC1 (stereo not drawn) [Lipid 78, 2-octyldodecyl 6-((2-(((2-(4-methylpiperazin-1-yl)ethyl)carbamoyl)oxy)ethyl)((9Z,12Z)-octadeca-9,12-dien-1-yl)amino)hexanoate] | 113% | 106% | 1.31E+05 | 7.80E+03 | 4.92E+05
6 | 93% | 0.2181 | 99.18 | −2.908 mV | CCCCC/C=C\C/C=C\CCCCCCCCN(CCCCCC(=O)OCC(CCCCCCCC)CCCCCCCCCC)CCOC(=O)NCCN1CCOCC1 (stereo not drawn) [Lipid 79, 2-octyldodecyl 6-((2-(((2-morpholinoethyl)carbamoyl)oxy)ethyl)((9Z,12Z)-octadeca-9,12-dien-1-yl)amino)hexanoate] | 104% | 104% | 3.94E+03 | 4.60E+01 | 4.70E+07
7 | 91% | 0.1671 | 81.48 | 4.031 mV | CCCCC/C=C\C/C=C\CCCCCCCCN(CCCCCCCC/C=C\C/C=C\CCCCC)CCOC(=O)NCCN1CCCCC1 [Lipid 85] | 78% | 105% | 2.85E+07 | 5.74E+05 | 1.96E+07
8 | 96% | 0.064 | 142.1 | 9.53 mV | CCCCCCCOC(=O)CCCCCCCCCN(CCCCCCCCCC(=O)OCCCCCCC)CCOC(=O)NCCN1CCCC1 [Lipid 119, diheptyl 10,10′-((2-(((2-(pyrrolidin-1-yl)ethyl)carbamoyl)oxy)ethyl)azanediyl)bis(decanoate)] | 17% | 8% | 1.46E+03 | 1.47E+04 | 9.30E+05
9 | 96% | 0.09314 | 143.8 | 9.34 mV | CCCCCCCOC(=O)CCCCCCCCCN(CCCCCCCCCC(=O)OCCCCCCC)CCOC(=O)NCCN(C)C [Lipid 120, heptyl 10-(10-(heptyloxy)-10-oxodecyl)-2-methyl-6-oxo-7-oxa-2,5,10-triazaicosan-20-oate] | 100% | 81% | 2.13E+03 | 8.51E+03 | 3.33E+05
10 | 96% | 0.187 | 134.6 | 10.84 mV | CCCCCCCOC(=O)CCCCCCCCCN(CCCCCCCCCC(=O)OCCCCCCC)CCOC(=O)NCCCN(CC)CC [Lipid 122, heptyl 3-ethyl-12-(10-(heptyloxy)-10-oxodecyl)-8-oxo-9-oxa-3,7,12-triazadocosan-22-oate] | 17% | 8% | 2.48E+03 | 2.24E+04 | 1.43E+05
11 | 99% | 0.1685 | 145.8 | 11.37 mV | CCCCC/C=C\C/C=C\CCCCCCCCN(CCCCCCCC(=O)OC(CCCCCCCC)CCCCCCCC)CCOC(=O)NCCCN(C)C [Lipid 130, heptadecan-9-yl 2-methyl-11-((9Z,12Z)-octadeca-9,12-dien-1-yl)-7-oxo-8-oxa-2,6,11-triazanonadecan-19-oate] | 91% | 90% | 5.31E+06 | 6.92E+05 | 1.08E+07
12 | 95% | 0.0973 | 92.91 | 2.957 mV | CCCCC/C=C\C/C=C\CCCCCCCCN(CCCCCCCC(=O)OC(CCCCCCCC)CCCCCCCC)CCOC(=O)NCCCn1ccnc1 [Lipid 133, heptadecan-9-yl 8-((2-(((3-(1H-imidazol-1-yl)propyl)carbamoyl)oxy)ethyl)((9Z,12Z)-octadeca-9,12-dien-1-yl)amino)octanoate] | 13% | 27% | 4.26E+04 | 8.30E+04 | 2.04E+08
13 | 90% | 0.043 | 89.71 | −8.698 mV | CCCCC/C=C\C/C=C\CCCCCCCCN(CCCCCCCC(=O)OC(CCCCCCCC)CCCCCCCC)CCOC(=O)NCCN1CCOCC1 [Lipid 134, heptadecan-9-yl 8-((2-(((2-morpholinoethyl)carbamoyl)oxy)ethyl)((9Z,12Z)-octadeca-9,12-dien-1-yl)amino)octanoate] | 13% | 84% | 3.17E+04 | 5.25E+04 | 8.93E+05

Reference: US12691070B2, “Cationic lipids and preparation method thereof” (RiboX Therapeutics HK Limited, priority 2023, dated 2026)
